According to US11077111B2, “Use of fused heteroaromatic pyrrolidones for treatment and prevention of diseases in animals” (Bayer Animal Health GmbH, priority 2017, dated 2021):

What was measured:
[1] = test system: house dust mites (HDM)-sensitized Beagle dogs; experiment: In vivo model of house dust mite induced canine allergic dermatitis; settings: for reduction rates of edema / reduction rates of erythema: range over time points
Method: Therein, HDM-sensitization consisted of a series of subcutaneous injections of HDM antigen (10 μg, Greer Laboratories, Lenoir, N.C., USA) and Alhydrogel® (0.2 mL, InvivoGen, San Diego, Calif. 921221, USA) as adjuvant in time intervals of approximately two weeks. The sensitization process was monitored and confirmed by intradermal skin testing. […] The control group was not treated while the group treated with the compound according to formula (IIIa) supra was orally treated with gelatin capsules containing the compound according to formula (IIIa) supra and Ac-Di-Sol; the group receiving Apoquel®, received the commercially available tablets. […] Plasma samples were analyzed to determine exposure to the compound in relationship to the clinical evaluations. […] This is illustrated by Tables 1 and 2, and by FIGS. 1 and 2.

IRAK4 = IRAK4 (Canis lupus familiaris, UniProt A0A8I3S726); experiment: Radiometric protein kinase assay, dog IRAK4; format: biochemical, Dog (Canis lupus familiaris); settings: 10 μM ATP
Method: (§1) A radiometric protein kinase assay was used for measuring the kinase activity of the Dog (Canis lupus familiaris) IRAK4, JAK1, JAK2, SYK kinases. All kinase assays were performed in 96-well FlashPlates in a 50 μl reaction volume. The reaction cocktail was pipetted in four steps in the following order: • 20 μl of assay buffer (standard buffer) • […] of test compound (in 10% DMSO) • 20 μl enzyme/substrate mix • […] (in H2O) The reaction cocktails were incubated at 30° C. for 60 minutes. The reaction was stopped with 50 μl of 2% (v/v) H3PO4, plates were aspirated and washed two times with 200 μl 0.9% (w/v) NaCl. Incorporation of 33Pi was determined with a microplate scintillation counter.
(§2) IC50 calculation: the residual activity (in %) for each well of a particular plate was calculated by using the following formula: Res. Activity (%)=100×[(cpm of compound−low control)/(high control−low control)]
(§3) The residual activities for each concentration and the compound IC50 values were calculated using Quattro Workflow V3.1.1 (Quattro Research GmbH, Munich, Germany; www.quattro-research.com). The fitting model for the IC50 determinations was “Sigmoidal response (variable slope)” with parameters “top” fixed at 100% and “bottom” at 0%. The fitting method used was a least-squares fit. […]

JAK1 = JAK1 (Canis lupus familiaris, UniProt A0A8I3RS40); experiment: Radiometric protein kinase assay, dog JAK1; format: biochemical, Dog (Canis lupus familiaris); settings: 3 μM ATP
Method: as §1, §2, §3

JAK2 = JAK2 (Canis lupus familiaris, UniProt A0A8C0QV87); experiment: Radiometric protein kinase assay, dog JAK2; format: biochemical, Dog (Canis lupus familiaris); settings: 0.3 μM ATP
Method: as §1, §2, §3

SYK = SYK (Canis lupus familiaris, UniProt A0A8I3P3G0); experiment: Radiometric protein kinase assay, dog SYK; format: biochemical, Dog (Canis lupus familiaris); settings: 1 μM ATP
Method: A radiometric protein kinase assay was used for measuring the kinase activity of the Dog (Canis lupus familiaris) IRAK4, JAK1, JAK2, SYK kinases. All kinase assays were performed in 96-well FlashPlates in a 50 μl reaction volume. […] The reaction was stopped with 50 μl of 2% (v/v) H3PO4, plates were aspirated and washed two times with 200 μl 0.9% (w/v) NaCl. Incorporation of 33Pi was determined with a microplate scintillation counter. IC50 calculation: the residual activity (in %) for each well of a particular plate was calculated by using the following formula: Res. Activity (%)=100×[(cpm of compound−low control)/(high control−low control)] […] The fitting method used was a least-squares fit. Materials: The dog (Canis lupus familiaris) protein kinases IRAK4, JAK1, JAK2 and SYK had been recombinantly expressed in Sf9 insect cells and purified by affinity chromatography.

[2] = 0.8 mg/kg BID oral, 0.5 h post-challenge
[3] = 0.8 mg/kg BID oral, 1 h post-challenge
[4] = 0.8 mg/kg BID oral, 4 h post-challenge
[5] = 0.8 mg/kg BID oral, 6 h post-challenge
[6] = 0.8 mg/kg BID oral, 24 h post-challenge
[7] = 0.8 mg/kg BID oral, 48 h post-challenge
[8] = 2 mg/kg BID oral, 0.5 h post-challenge
[9] = 2 mg/kg BID oral, 1 h post-challenge
[10] = 2 mg/kg BID oral, 4 h post-challenge
[11] = 2 mg/kg BID oral, 6 h post-challenge
[12] = 2 mg/kg BID oral, 24 h post-challenge
[13] = 2 mg/kg BID oral, 48 h post-challenge

Chain of SYK (A0A8I3P3G0 1-633): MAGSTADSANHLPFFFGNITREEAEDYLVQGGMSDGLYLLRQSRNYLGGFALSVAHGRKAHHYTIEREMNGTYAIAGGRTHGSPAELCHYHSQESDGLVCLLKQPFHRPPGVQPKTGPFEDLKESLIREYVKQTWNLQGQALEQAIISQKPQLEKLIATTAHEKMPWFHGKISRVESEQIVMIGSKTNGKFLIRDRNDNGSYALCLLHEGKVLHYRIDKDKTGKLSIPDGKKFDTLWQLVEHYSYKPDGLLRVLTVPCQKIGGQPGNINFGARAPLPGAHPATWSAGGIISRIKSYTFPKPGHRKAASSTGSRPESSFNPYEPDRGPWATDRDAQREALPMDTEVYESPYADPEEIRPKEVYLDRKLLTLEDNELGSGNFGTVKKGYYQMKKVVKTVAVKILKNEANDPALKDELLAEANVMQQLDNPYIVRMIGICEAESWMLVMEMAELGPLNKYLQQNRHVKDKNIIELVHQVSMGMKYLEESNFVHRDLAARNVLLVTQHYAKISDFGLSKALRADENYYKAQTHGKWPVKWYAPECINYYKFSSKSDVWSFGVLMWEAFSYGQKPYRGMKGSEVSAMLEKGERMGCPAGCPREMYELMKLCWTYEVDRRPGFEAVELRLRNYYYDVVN
Chain of JAK1 (A0A8I3RS40 1-1159): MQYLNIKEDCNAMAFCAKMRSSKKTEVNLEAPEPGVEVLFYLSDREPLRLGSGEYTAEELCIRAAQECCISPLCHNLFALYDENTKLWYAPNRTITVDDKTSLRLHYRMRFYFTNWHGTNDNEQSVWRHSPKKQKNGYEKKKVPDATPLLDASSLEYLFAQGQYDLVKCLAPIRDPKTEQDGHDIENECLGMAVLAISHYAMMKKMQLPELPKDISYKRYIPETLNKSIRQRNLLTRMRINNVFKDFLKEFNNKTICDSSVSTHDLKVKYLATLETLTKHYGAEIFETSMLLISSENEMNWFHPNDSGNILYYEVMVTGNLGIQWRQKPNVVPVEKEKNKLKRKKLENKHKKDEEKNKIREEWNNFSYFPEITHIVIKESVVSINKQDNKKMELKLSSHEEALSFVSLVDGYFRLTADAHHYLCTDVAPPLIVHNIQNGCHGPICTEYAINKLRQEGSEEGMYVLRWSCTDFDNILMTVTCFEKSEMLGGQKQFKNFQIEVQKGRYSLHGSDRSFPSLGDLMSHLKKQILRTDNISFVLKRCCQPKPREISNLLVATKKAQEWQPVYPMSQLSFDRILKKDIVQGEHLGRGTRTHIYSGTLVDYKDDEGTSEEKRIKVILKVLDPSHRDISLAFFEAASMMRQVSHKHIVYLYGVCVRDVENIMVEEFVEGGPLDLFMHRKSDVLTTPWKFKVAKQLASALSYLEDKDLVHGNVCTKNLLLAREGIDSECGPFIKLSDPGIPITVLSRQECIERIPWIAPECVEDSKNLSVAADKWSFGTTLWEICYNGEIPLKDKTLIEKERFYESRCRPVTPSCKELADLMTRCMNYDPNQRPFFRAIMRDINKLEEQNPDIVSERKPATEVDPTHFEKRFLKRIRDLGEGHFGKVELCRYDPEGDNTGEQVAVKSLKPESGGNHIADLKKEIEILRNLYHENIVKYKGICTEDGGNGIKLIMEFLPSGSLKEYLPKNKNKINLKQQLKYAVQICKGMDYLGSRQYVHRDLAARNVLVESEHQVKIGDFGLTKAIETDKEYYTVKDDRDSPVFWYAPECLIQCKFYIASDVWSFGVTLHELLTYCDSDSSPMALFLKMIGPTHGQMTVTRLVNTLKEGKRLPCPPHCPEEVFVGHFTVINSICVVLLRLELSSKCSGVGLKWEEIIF
Chain of IRAK4 (A0A8I3S726 1-460): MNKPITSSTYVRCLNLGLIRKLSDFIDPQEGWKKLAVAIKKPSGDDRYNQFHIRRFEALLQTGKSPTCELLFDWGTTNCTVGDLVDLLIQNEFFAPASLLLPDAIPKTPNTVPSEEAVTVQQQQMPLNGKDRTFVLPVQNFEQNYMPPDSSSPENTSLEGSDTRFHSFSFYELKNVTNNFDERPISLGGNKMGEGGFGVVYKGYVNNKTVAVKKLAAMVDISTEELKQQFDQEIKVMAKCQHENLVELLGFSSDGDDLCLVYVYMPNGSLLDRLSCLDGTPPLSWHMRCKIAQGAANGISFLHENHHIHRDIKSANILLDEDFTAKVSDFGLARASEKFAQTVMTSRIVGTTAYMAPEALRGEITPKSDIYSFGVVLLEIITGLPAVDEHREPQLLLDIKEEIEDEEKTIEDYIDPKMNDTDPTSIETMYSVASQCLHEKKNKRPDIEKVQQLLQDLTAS
Chain of JAK2 (A0A8C0QV87 1-1132): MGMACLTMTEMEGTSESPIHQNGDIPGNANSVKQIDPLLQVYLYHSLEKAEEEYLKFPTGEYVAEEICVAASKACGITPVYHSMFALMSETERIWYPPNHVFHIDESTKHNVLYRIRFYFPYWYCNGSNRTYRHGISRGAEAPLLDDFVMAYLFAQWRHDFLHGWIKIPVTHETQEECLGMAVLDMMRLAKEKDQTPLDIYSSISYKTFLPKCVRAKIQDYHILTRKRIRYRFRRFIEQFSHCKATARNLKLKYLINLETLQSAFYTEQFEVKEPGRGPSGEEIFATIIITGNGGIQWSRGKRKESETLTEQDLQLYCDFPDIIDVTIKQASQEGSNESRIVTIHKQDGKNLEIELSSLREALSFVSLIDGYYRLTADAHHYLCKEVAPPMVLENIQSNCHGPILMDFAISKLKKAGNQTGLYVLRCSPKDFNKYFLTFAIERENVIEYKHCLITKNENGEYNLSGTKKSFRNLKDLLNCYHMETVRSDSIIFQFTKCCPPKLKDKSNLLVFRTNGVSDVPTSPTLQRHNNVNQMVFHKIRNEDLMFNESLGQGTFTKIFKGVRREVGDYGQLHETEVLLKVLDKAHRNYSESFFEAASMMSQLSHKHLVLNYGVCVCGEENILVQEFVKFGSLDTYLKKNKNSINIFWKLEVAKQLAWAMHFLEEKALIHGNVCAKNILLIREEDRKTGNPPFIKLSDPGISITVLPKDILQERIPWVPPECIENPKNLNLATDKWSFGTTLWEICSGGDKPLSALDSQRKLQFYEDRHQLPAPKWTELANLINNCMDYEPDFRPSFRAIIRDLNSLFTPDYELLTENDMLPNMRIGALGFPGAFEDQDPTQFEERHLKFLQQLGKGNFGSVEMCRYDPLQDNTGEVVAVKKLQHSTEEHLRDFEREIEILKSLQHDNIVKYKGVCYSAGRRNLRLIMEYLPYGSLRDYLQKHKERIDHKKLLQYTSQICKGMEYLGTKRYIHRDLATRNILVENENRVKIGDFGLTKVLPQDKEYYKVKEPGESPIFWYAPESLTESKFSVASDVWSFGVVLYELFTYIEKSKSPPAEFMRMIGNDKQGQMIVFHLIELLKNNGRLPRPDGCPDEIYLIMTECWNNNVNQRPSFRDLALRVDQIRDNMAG

## Cn1cc(-c2nc(N[C@@H]3CCCC[C@@H]3N)c(F)c3c2C(=O)NC3)cn1 [IIIa, 6-((1R,2S)-2-aminocyclohexylamino)-7-fluoro-4-(1-methyl-1H-pyrazol-4-yl)-1H-pyrrolo[3,4-c]pyridine-3(2H)-one]
[1]; [2]
  Percentage of reduction of Edema (compared to untreated control, median values): 41%
  Percentage of reduction of Erythema (compared to untreated control, median values): 33%
[1]; [3]
  Percentage of reduction of Edema (compared to untreated control, median values): 52%
  Percentage of reduction of Erythema (compared to untreated control, median values): 63%
[1]; [4]
  Percentage of reduction of Edema (compared to untreated control, median values): 39%
  Percentage of reduction of Erythema (compared to untreated control, median values): 30%
[1]; [5]
  Percentage of reduction of Edema (compared to untreated control, median values): 49%
  Percentage of reduction of Erythema (compared to untreated control, median values): 28%
[1]; [6]
  Percentage of reduction of Edema (compared to untreated control, median values): 41%
  Percentage of reduction of Erythema (compared to untreated control, median values): 43%
[1]; [7]
  Percentage of reduction of Edema (compared to untreated control, median values): 100%
  Percentage of reduction of Erythema (compared to untreated control, median values): 100%
[1]; 0.8 mg/kg BID
  reduction rates of edema: 39-100%
  reduction rates of erythema: 28-100%
[1]; 2 mg/kg BID
  comparative reduction of edema in the CAD model (% compared the control group), up to: > 75%
  comparative reduction of erythema in the CAD model (% compared the control group), up to: > 75%
  reduction rates of edema: 75-100%
  reduction rates of erythema: 69-100%
[1]; [8]
  Percentage of reduction of Edema (compared to untreated control, median values): 76%
  Percentage of reduction of Erythema (compared to untreated control, median values): 74%
[1]; [9]
  Percentage of reduction of Edema (compared to untreated control, median values): 81%
  Percentage of reduction of Erythema (compared to untreated control, median values): 76%
[1]; [10]
  Percentage of reduction of Edema (compared to untreated control, median values): 75%
  Percentage of reduction of Erythema (compared to untreated control, median values): 75%
[1]; [11]
  Percentage of reduction of Edema (compared to untreated control, median values): 79%
  Percentage of reduction of Erythema (compared to untreated control, median values): 76%
[1]; [12]
  Percentage of reduction of Edema (compared to untreated control, median values): 75%
  Percentage of reduction of Erythema (compared to untreated control, median values): 69%
[1]; [13]
  Percentage of reduction of Edema (compared to untreated control, median values): 100%
  Percentage of reduction of Erythema (compared to untreated control, median values): 100%
[1]; House Dust Mite model, oral BID
  effect on clinical signs of CAD (edema and erythema): significantly reduced

## Cn1cc(-c2nc(N[C@@H]3CCCC[C@@H]3N)c(Cl)c3c2C(=O)NC3)cn1 [IVa, 6-((1R,2S)-2-Aminocyclohexylamino)-7-chloro-4-(1-methyl-1H-pyrazol-4-yl)-1H-pyrrolo[3,4-c]pyridin-3(2H)-one]
IRAK4
  IC50: 0.0102 µM
JAK1
  IC50: 0.466 µM
JAK2
  IC50: 0.624 µM
SYK
  IC50: 0.323 µM
